Results reported in patent US20260256751A1, “COMBINATION OF BETA-2-ADRENERGIC RECEPTOR AGONISTS AND GLP-1 RECEPTOR AGONISTS FOR USE IN TREATING HYPERGLYCAEMIA” (ATROGI AB, priority 2023, published 2026).

Columns and labels:
[1] = tested on: differentiated L6-myotubes; assay: Glucose uptake screen (Biological example 1 of WO 2019/053427); assay type: cell-based; details: compound at 10 μM, activity relative to isoproterenol at 10 μM, read-out: Biological example 1 of WO 2019/053427 (GU)
Outline: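 Rat L6 myoblasts were differentiated into myotubes over 7 days in 2% FBS, then serum-starved overnight. Cells were stimulated with 1×10^−5 M compound plus β2 antagonist ICI-118551 for 1 h 40 min and re-dosed for 20 min in glucose-free medium. Uptake of 50 nM ^3H-2-deoxyglucose over 10 min was counted after NaOH lysis.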

[2] = tested on: differentiated L6-myotubes; assay: cAMP production relative to isoprenaline (Biological example 2 of WO 2019/053427); assay type: cell-based; details: 0.25 h, compound at 10 μM, activity relative to isoproterenol at 10 μM
Outline: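 Differentiated L6 myotubes stimulated 15 min with test compound or isoprenaline, each at final 1×10^−5 M, in HBSS with 1% BSA, 5 mM HEPES, 1 mM IBMX, pH 7.4. cAMP production by the compound expressed relative to that induced by the same concentration of isoprenaline.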

Compound	Emax at 10 µM [1] [%]	Emax at 10 µM [2] [%]
CC(=O)N[C@H]1CC[C@H](CNC[C@H](O)c2cncc(F)c2)CC1 [Compound 309, N-[(1R,4r)-4-{[(R)-2-(5-fluoro-3-pyridyl)-2-hydroxyethylamino]methyl}cyclohexyl]acetamide]	50 to 75	< 25
CCCC12CCC([C@@H](O)c3cccc(F)c3)(CC1)N2 [Compound 182, (S)-(m-fluorophenyl)(- propyl-7-azabicyclo[2.2.1]hept-1-yl)methanol]	< 25	< 25
O[C@@H](c1cccc(F)c1)C12CCC(COCc3ccc(OC(F)(F)F)cc3)(CC1)N2 [Compound 487, (S)-(m-fluorophenyl)(4-{[(p-trifluoromethoxyphenyl)methoxy]methyl}-7-azabicylco[2.2.1]hept-1-yl)methanol]	< 25	< 25
CC1(C)CC[C@H]([C@@H](O)c2cccc(O)c2)N1 [Compound 111, m-{(S)-[(R)-5,5-dimethyl-2-pyrrolidinyl]hydroxymeth-yl}phenol]	50 to 75	< 25
CC1(C)CCC[C@H]([C@H](O)c2cccc(Cl)c2)N1 [Compound 165, (R)-[(R)-6,6-dimethyl-2-piperidyl](m-chlorophenyl)methanol]	25 to 50	< 25
CC(=O)N[C@H]1CC[C@@H](CC(C)(C)NC[C@H](O)c2cccnc2C)CC1 [Compound 436, N-[(1S,4s)-4-{2-[(R)-2-hydroxy-2-(2-methyl-3-pyridyl)ethylamino]-2-methylpropyl}cyclohexyl]acetamide]	50 to 75	< 25
CC(=O)N[C@H]1CC[C@H](C[C@@H]2CC[C@H]([C@H](O)c3cccc(F)c3)N2)CC1 [Compound 485, N-[(1S,4r)-4-({(2S,5R)-5-[(R)-(m-fluorophenyl)hydroxymethyl]-2-pyrrolidinyl}methyl)cyclohexyl]acetamide]	50 to 75	< 25
CO[C@H]1CC[C@H](CNC[C@H](O)c2cccc(F)c2)CC1 [Compound 228, (R)-1-(m-fluorophenyl)-2-({[(1r,4R)-4-methoxycyclohexyl]meth-yl}amino)-1-ethanol]	50 to 75	< 25
CO[C@H]1CC[C@H](CNC[C@H](O)c2cncc(F)c2)CC1 [Compound 229, (R)-1-(5-fluoro-3-pyridyl)-2-({[(1r,4R)-4-methoxycyclohexyl]meth-yl}amino)-1-ethanol]	50 to 75	< 25
CC(=O)N[C@H]1CC[C@H](CC(C)(C)NC[C@H](O)c2cccc(F)c2)CC1 [Compound 383, N-[(1R,4r)-4-{2-[(R)-2-(m-fluorophenyl)-2-hydroxyethylamino]-2-methylpropyl}cyclohexyl]acetamide]	> 75	25 to 50
CC(=O)N[C@H]1CC[C@@H](CNC[C@H](O)c2cccc(F)c2)CC1 [Compound 307, N-[(1S,4s)-4-{[(R)-2-(m-fluorophenyl)-2-hydroxyethylamino]methyl}cyclohexyl]acetamide]	50 to 75	< 25
CCC[C@H]1CCC[C@H]([C@H](O)c2ccccc2Cl)N1 [Compound 135, (R)-[(2R,6S)-6-propyl-2-piperidyl](o-chlorophenyl)methanol]	25 to 50	< 25
CCCC12CCC([C@H](O)c3cccc(F)c3)(CC1)N2 [Compound 183, (R)-(m-fluorophenyl)(4-propyl-7-azabicyclo[2.2.1]hept-1-yl)methanol]	50 to 75	25 to 50
CC(C)(C[C@H]1CC[C@@H](NC(=O)OC(C)(C)C)CC1)NC[C@H](O)c1cccc(C#N)n1 [Compound 414]	50 to 75	< 25
CC(C)(CC[C@H]1CC[C@H](O)CC1)NC[C@H](O)c1ccccc1F [Compound 319, (R)-2-{1,1-dimethyl-3-[(1r,4S)-4-hydroxycyclohexyl]propylamino}-1-(o-fluorophenyl)-1-ethanol]	> 75	< 25
CC1(C)CC[C@H]([C@@H](O)c2cncc(F)c2)N1 [Compound 156, (S)-[(R)-5,5-dimethyl-2-pyrrolidinyl](5-fluoro-3-pyridyl)methanol]	< 25	< 25
O[C@H](c1cccc(F)c1)[C@H]1CC[C@@H](Cc2ccc(Cl)cc2)N1 [Compound 392, (R)-{(2R,5S)-5-[(p-chlorophenyl)methyl]-2-pyrrolidinyl}(m-fluorophenyl)methanol]	> 75	< 25
O[C@H](c1cccc(F)c1)C12CCC(Cc3ccccc3)(CC1)N2 [Compound 388, (R)-(4-benzyl-7-azabicyclo[2.2.1]hept-1-yl)(m-fluorophenyl)methanol]	> 75	25 to 50

Compound	Emax at 10 µM [1] [%]	Emax at 10 µM [2] [%]
CC(C)(C[C@H]1CC[C@H](NC(=O)C(C)(C)C)CC1)NC[C@H](O)c1cccc(F)c1 [Compound 429, N-[(1R,4r)-4-{2-[(R)-2-(m-fluorophenyl)-2-hdyroxyethylamino]-2-methylpropyl}cyclohexyl]2,2-dimethylpropionamide]	> 75	25 to 50
CC1(C)CCC[C@H]([C@@H](O)c2ccccc2Cl)N1 [Compound 163, (S)-[(R)-6,6-dimethyl-2-piperidyl](o-chlorophenyl)methanol]	> 75	< 25
CC(=O)N[C@H]1CC[C@H](CC(C)(C)NC[C@H](O)c2cccc(C(F)(F)F)n2)CC1 [Compound 460, N-[(1S,4r)-4-(2-{(S)-2-hydroxy-2-[6-(trifluoromethyl)-2-pyridyl]ethylamino}-2-methylpropyl)cyclohexyl]acetamide]	50 to 75	< 25
CC1(C)CCC[C@@H]([C@@H](O)c2cccc(F)c2)N1 [Compound 191, (S)-[(S)-6,6-dimethyl-2-piperidyl](m-fluorophenyl)methanol]	25 to 50	< 25
CO[C@H]1CC[C@H](CCCNC[C@H](O)c2cncc(F)c2)CC1 [Compound 261, (R)-1-(5-fluoro-3-pyridyl)-2-{3-[(1r,4S)-4-methoxycyclohexyl]propyl-amino}-1-ethanol]	< 25	< 25
CCC[C@H]1CCC[C@H]([C@@H](O)c2cncc(F)c2)N1 [Compound 139, (S)-[(2R,6S)-6-propyl-2-piperidyl](5-fluoro-3-pyridyl)methanol]	< 25	< 25
CCCCNC[C@H](O)c1ccc(F)cc1O [Compound 81, (R)-2-(butylamino)-1-(4-fluoro-2-hydroxyphenyl)-1-ethanol]	50 to 75	< 25
CCCCNCC(O)c1cc[nH]c(=O)c1 (stereo not drawn) [Compound 62, 4-[2-(butylamino)-1-hydroyxethyl]-2(1H)-pyridinone]	25 to 50	< 25
COc1ccc(C[C@@H]2CC[C@H]([C@@H](O)c3cccc(F)c3)N2)cc1 [Compound 372, (S)-{(2R,5S)-5-[(p-methoxyphenyl)methyl]-2-pyrrolidinyl}(m-fluorophenyl)methanol]	> 75	< 25
CC(C)(C)CNC[C@H](O)c1cccc(F)c1 [Compound 117, (R)-1-(m-flurophenyl)-2-(neopentylamino)-1-ethanol]	25 to 50	< 25
CC1(C)CC[C@H]([C@@H](O)c2cc(F)c(N)c(F)c2)N1 [Compound 236, (S)-[(R)-5,5-dimethyl-2-pyrrolidinyl](4-amino-3,5-difluorophenyl)methanol]	> 75	25 to 50
CC(C)(C)NC[C@H](O)c1cccc(F)c1F [Compound 76, (R)-2-(tert-butylamino)-1-(2,3-difluorophenyl)-1-ethanol]	> 75	25 to 50
CS(=O)(=O)N[C@H]1CC[C@H](CNC[C@H](O)c2cncc(F)c2)CC1 [Compound 313, (R)-1-(5-fluoro-3-pyridyl)-2-({[(1r,4R)-4-(mesylamino)cyclohexyl]methyl}amino)-1-ethanol]	25 to 50	< 25
CO[C@H]1CC[C@H](C[C@H]2CC[C@H]([C@H](O)c3ccccc3F)N2)CC1 [Compound 339, (R)-[(2R,5R)-5-{[(1r,4R)-4-methoxycyclohexyl]methyl}-2-pyrrolidinyl](o-fluorophenyl)methanol]	> 75	25 to 50
CC(C)(NC[C@H](O)c1cncc(F)c1)[C@H]1CC[C@H](OCC(=O)O)CC1 [Compound 419, [(1R,4r)-4-{1-[(R)-2-(5-fluoro-3-pyridyl)-2-hydroxyethylamino]-1-methylethyl}cyclohexyloxy]aetic acid]	50 to 75	< 25
CC(=O)N[C@H]1CC[C@H](CNC[C@H](O)c2cccc(F)c2)CC1 [Compound 308, N-[(1R,4r)-4-{[(R)-2-(m-fluorophenyl)-2-hydroxyethylamino]methyl}cyclohexyl]acetamide]	50 to 75	< 25
CCCCNCC(O)c1cccc(Cl)c1 (stereo not drawn) [Compound 2, 2-(butylamino)-1-(m-chlorophenyl)-1-ethanol]	25 to 50	< 25
Cc1ncccc1[C@@H](O)CNC(C)(C)C[C@H]1CC[C@H](NS(C)(=O)=O)CC1 [Compound 435, (R)-2-{1,1-dimethyl-2-[(1r,4R)-4-(mesylamino)cyclohexyl]ethylamino}-1-(2-methyl-3-pyridyl)-1-ethanol]	25 to 50	< 25
